According to patent US12337010B2, “Compositions and methods of treatment using nicotinamide mononucleotide” (Washington University, priority 2017, dated 2025):
Blank lines part the entries; values can stand above or below the compound they belong to.

How the values were obtained:
[1] = biological target: T1, Slc12a8 (Mus musculus, UniProt Q8VI23); assay: 3H-NMN uptake and displacement in Slc12a8-OE proteoliposomes; type: biochemical; conditions: for displacement of 3H-NMN: 150 μM cold compound, 150 nM 3H-NMN, 2 min
T1 construct: NIH3T3 cells were transfected with 5 μg of pCXN2 carrying the full-length Slc12a8 cDNA (Slc12a8-OE); expressed in transfected cells
T1 sequence (Q8VI23 1-705): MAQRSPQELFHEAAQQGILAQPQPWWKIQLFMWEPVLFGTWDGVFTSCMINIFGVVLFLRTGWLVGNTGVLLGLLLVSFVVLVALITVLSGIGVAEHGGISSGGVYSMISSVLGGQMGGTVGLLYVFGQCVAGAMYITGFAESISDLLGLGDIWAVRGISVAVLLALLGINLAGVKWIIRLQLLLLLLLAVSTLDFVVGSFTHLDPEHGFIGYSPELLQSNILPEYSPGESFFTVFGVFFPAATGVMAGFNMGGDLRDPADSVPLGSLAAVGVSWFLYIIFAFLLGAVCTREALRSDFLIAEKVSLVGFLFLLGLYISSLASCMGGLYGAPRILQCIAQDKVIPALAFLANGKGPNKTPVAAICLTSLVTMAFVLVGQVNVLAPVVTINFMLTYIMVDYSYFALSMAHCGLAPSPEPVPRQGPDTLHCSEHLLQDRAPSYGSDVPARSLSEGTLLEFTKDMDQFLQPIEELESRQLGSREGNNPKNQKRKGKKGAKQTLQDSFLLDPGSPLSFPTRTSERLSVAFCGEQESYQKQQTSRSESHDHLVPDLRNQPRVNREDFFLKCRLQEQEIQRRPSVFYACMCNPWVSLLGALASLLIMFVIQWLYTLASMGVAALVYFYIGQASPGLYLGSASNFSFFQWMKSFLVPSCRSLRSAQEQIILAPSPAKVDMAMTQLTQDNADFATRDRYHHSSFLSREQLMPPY
Protocol: Proteoliposome experiments. Proteoliposome preparation was carried out as previously described (Bruzzone, S., et al., FASEB J., 15, 10-12, 2001). Briefly, 2×10^7 control or Slc12a8-OE NIH3T3 cells were resuspended in 1 ml of lysis buffer (10 mM Tris-HCl, pH 8.3, 150 mM NaCl, 0.3 M sucrose, protease inhibitor cocktail) and disrupted using a homogenizer. The lysate was centrifuged for 10 min at 3,000×g, and the supernatant was collected and centrifuged for 15 min at 100,000×g. The membrane proteins were solubilized with buffer A (10 mM Tris-HCl, pH 8.3, containing 150 mM NaCl and 0.5% n-octyl β-glucopyranoside). Separately, total lipids were extracted from hemoglobin-free erythrocyte membranes (ghosts) as described previously (Franco, L., et al., FASEB J., 12, 1507-1520, 1998). Total lipids from human erythrocyte membranes (3 mg) were dried and resuspended with 600 μl of solubilized membrane proteins (at approximately 0.7 mg/ml protein concentration). The resulting emulsions were sonicated in ice for 1 min and dialyzed against 5 liters of buffer A without n-octyl-β-glucopyranoside (dialysis buffer) for 24 h at 4° C. Proteoliposomes were recovered, centrifuged for 15 min at 100,000×g, resuspended in 900 μl dialysis buffer and passed 5 times through a 30-gauge needle.
To examine the Na+-dependency of Slc12a8, NaCl was replaced with 150 mM LiCl. All steps were carried out at 4° C. Proteoliposomes (30 μl in triplicate for each condition) were incubated for 2, 5 or 10 min at 25° C. in the presence of […] 3H-β-NMN (specific activity, 9.1 Ci/mmole) with or without label-free nucleotides (NMN, NR, NAD, AMP; NAM or NaMN). At the end of incubations, samples were filtered on a glass fiber paper. Filters were washed with 3 ml of dialysis buffer, dried, and counted for radioactivity.
Proteoliposomes were produced by combining the membrane fractions of Slc12a8-OE or control NIH3T3 cells with the phospholipid bilayers derived from deproteinized erythrocyte plasma membrane as described supra using 22 nM, ^3H-NMN at 25° C. in proteoliposomes produced from plasma membrane fractions of Slc12a8-OE and control NIH3T3 cells in transport buffer (n=3; analyzed by one-way ANOVA with Sidak's multiple comparisons test).
In order to determine substrate specificity of Slc12a8, these Slc12a8-OE proteoliposomes were used for displacement experiments with ^3H-NMN and various cold NAD+-related compounds. Uptake of ^3H-NMN (150 nM, 25° C.) was measured at 2 min in Slc12a8-OE proteoliposomes in the presence of 150 μM competing cold compounds (NMN, NR, NAD, AMP, NaMN, and nicotinamide) in transport buffer (n=3, analyzed by ANOVA with Dunnett's test). […] Data are shown as percentages of ^3H-NMN uptake (n=3; IC50 was calculated by non-linear regression analysis).
In these experiments, the sodium ion dependency of Slc12a8 for NMN transport was evaluated using the proteoliposome system.

[2] = biological target: T1, Slc12a8; assay: Radiolabeled NMN uptake in Slc12a8-OE and control NIH3T3 cells; type: cell-based; conditions: 25 μM, 37° C., 3 and 5 min time points, Slc12a8-OE cells compared to control cells
Protocol: NMN uptake analyses with radiolabeled NMN. Control and Slc12a8-OE NIH3T3 cells were harvested by centrifugation (400×g, 5 min), washed once in HBSS, and incubated at 37° C. in HBSS [pH 7.5] (5×10^6 cells/ml) containing 100 nM 3H-β-Nicotinamide mononucleotide (9 Ci/mmol; Moravek Biochemicals, CA) and unlabeled NMN to make the final concentration 25 μM. At the designated time points (1, 3, 5 and 10 minutes), aliquots of the cells (100 μl) were collected and placed in 1.5-ml microcentrifuge tubes containing silicone-mineral oil (density, 1.015; Sigma-Aldrich) on the top of 2 M potassium hydroxide solution, followed by centrifugation at 16,000×g for 30s. Cells were separated from the buffer and pelleted through the silicone-mineral oil layer. The radioactivity in these cell pellets was determined by a liquid scintillation counter. For calculating Km and Vmax, the same conditions were used as described above, but with various total concentrations of NMN, ranging from 1 μM to 100 μM. At the 4-min time point, 100 μl of cell suspension was collected and pelleted in the same way described above. The radioactivity in cell pellets was determined by a liquid scintillation counter. The radioactivity measured in control NIH3T3 cells was subtracted to calculate Slc12a8-specific NMN uptake in Slc12a8-OE NIH3T3 cells.
Uptake of NMN was measured as described in methods under “NMN uptake analyses with radiolabeled NMN” using 25 μM ^3H-NMN at 37° C. in control and Slc12a8-OE NIH3T3 cells over 10 min in Hanks' buffer [ph7.5] with Mg2+ and Ca2+ (n=12; analyzed by ANOVA with Sidak's test). […] This Km is qualitatively consistent with a detected range of NMN concentrations in mouse plasma and erythrocytes (Revollo, J. R. et al., Cell Metab., 6, 363-375, 2007; Ramsey, K. M., et al., Science, 324, 651-654, 2009; Yamada, K., et al., Anal. Biochem., 352, 282-285, 2006).

[3] = test system: Slc12a8 mRNA expression; assay: Slc12a8 mRNA expression by quantitative RT-PCR in cells and ex vivo small intestine explants; type: cell-based, mouse; conditions: FK866 alone; primary hepatocytes, NIH3T3 fibroblasts (24 h), jejunum and ileum explants (4 h)
Protocol: Cell culture and ex vivo small intestine explant culture. […] For Slc12a8 mRNA expression analysis, 2.5×10^5 cells per well were incubated in 6-well plates with DMEM with 1% FBS containing 0.1% DMSO or 100 nM FK866 or 100 nM FK866 plus 100 μM NMN for 24 h. Small intestines from 3-month old B6 male mice were cut into three segments with duodenum/jejunum/ileum length ratios of 1:3:2 (Wang, H. H., et al., Hepatology 45, 998-1006, 2007). […] Cellular and tissue RNA samples were analyzed by quantitative RT-PCR, as described previously (Stein, L. R. & Imai, S., EMBO J., 33, 1321-1340, 2014).
The amounts of adenosine produced were determined by HPLC. […] Silencing efficiencies were evaluated by quantitative RT-PCR.
FIG. 2 illustrates that Slc12a8 is highly expressed in the small intestine and pancreas and moderately in the liver and white adipose tissue of B6 male mice at 3 months of age (n=3 mice). […] Cells were treated with these compounds for 24 h (n=4 mice for hepatocytes treated with DMSO and FK866, and n=3 mice for hepatocytes treated with FK866 and NMN; n=6 for NIH3T3 cells; analyzed using ANOVA with Tukey's test). FIG. 5 illustrates surface and intracellular Slc12a8 protein expression levels were measured by flow cytometry analysis in NIH3T3 cells treated with FK866 or FK866 plus NMN for 48h. […]

[4] = test system: Slc12a8 gene; assay: Microarray gene expression profiling of FK866-treated primary cultures; type: cell-based, mouse
Protocol: Microarray Analysis. Total RNA was isolated from primary hepatocytes, pancreatic islets, and hippocampal neurospheres, treated with 0.1% DMSO (control) or FK866 (200 nM for primary hepatocytes, and 10 nM for pancreatic islets and hippocampal neurospheres). To determine transcriptional changes induced by FK866 treatment, microarray analyses were conducted using the Illumina Mouse Ref 8 whole genome microarrays (version 2). […] All data were analyzed by the R statistical software package.
Slc12a8 was identified in the section of the Venn diagram in FIG. 1 indicated by an arrow. The Slc12a8 gene belongs to the SLC12 gene family of the electroneutral cation-chloride-coupled co-transporters, and the function of the protein encoded by this gene remains unknown (Hebert, S. C., et al., Pflugers Arch. 447, 580-593, 2004).

Compound: 3H-β-Nicotinamide mononucleotide [^3H-NMN]
3H-NMN incorporation ([1]; 22 nM, 25° C., within 2 min, Slc12a8-OE-derived vs control-derived proteoliposomes): significantly higher levels | uptake of 3H-NMN [2]: significantly enhanced

displacement of 3H-NMN ([1]; 25° C.): very low or negligible displacement
Compound: Nc1ncnc2c1ncn2[C@@H]1O[C@H](COP(=O)(O)O)[C@@H](O)[C@H]1O [AMP, adenosine monophosphate]

Compound: O=C(/C=C/c1cccnc1)NCCCCC1CCN(C(=O)c2ccccc2)CC1 [FK866]
Slc12a8 expression [3]: induced significantly | Slc12a8 Z ratio ([4]; hippocampal neurospheres, 10 nM FK866 vs 0.1% DMSO): 4.91 | Slc12a8 Z ratio ([4]; pancreatic islets, 10 nM FK866 vs 0.1% DMSO): 1.69 | Slc12a8 Z ratio ([4]; primary hepatocytes, 200 nM FK866 vs 0.1% DMSO): 2.06

effect on uptake of 3H-NMN ([1]; Slc12a8-overexpressing proteoliposomes): able to enhance the uptake
Compound: O=C(O)c1cccnc1 [NA, nicotinic acid]

displacement of 3H-NMN ([1]; 25° C.): very low or negligible displacement
Compound: NC(=O)c1ccc[n+]([C@@H]2O[C@H](COP(=O)([O-])OP(=O)(O)OC[C@H]3O[C@@H](n4cnc5c(N)ncnc54)[C@H](O)[C@@H]3O)[C@@H](O)[C@H]2O)c1 [NAD+]

displacement of 3H-NMN ([1]; 25° C.): ~70% | IC50 ([1]; Slc12a8-OE proteoliposome system): 77.4 ± 10.8 µM
Compound: NC(=O)c1ccc[n+]([C@@H]2O[C@H](CO)[C@@H](O)[C@H]2O)c1 [NR, nicotinamide riboside]

Compound: O=C(O)c1ccc[n+]([C@@H]2O[C@H](COP(=O)(O)O)[C@@H](O)[C@H]2O)c1 [NaMN, nicotinic acid mononucleotide]
displacement of 3H-NMN ([1]; 25° C.): very low or negligible displacement

displacement of 3H-NMN ([1]; 25° C.): very low or negligible displacement
Compound: NC(=O)c1cccnc1 [nicotinamide]
